One test concerns nematodes (J2's). The experiment in a line: SAR motility bioassay of synthetic analogues. The test is classed as in vivo. The following applies: 3 μL at 20 mg/ml into 50 μl with approximately 300 J2's, 24 hours, then 24 hour recovery on 1.5% water agar; average of 6 repetitions. As to the method: To quickly understand which part of the 1-(4-hydroxyphenyl) pent-1-en-3-one (1) molecule (polyketide) plays a crucial role on the nematicidal activity, a series of structural analogues were synthesized and evaluated using motility test. This bioassay serves to distinguish the differences in efficacy by measuring the recovery and the mobility of the nematodes after being exposed to any given compound with 6 repetitions per treatment. This bioassay involves the following procedure: 3 μL (at 20 mg/ml) of the sample are dispensed into 50 μl of approximately 300 J2's in a 96-well plastic cell-culture plate. After 24 hours, 100-150 of the treated J2's were transferred into 6-well plates that contain 1.5% water agar. After drying of the test sample on the agar, the initial drop was marked and initial counts of the J2's were carried out. After another 24 hour recovery period, the immobilization of the juveniles were measured by counting the number of J2's that moved from the initial circle and an average of the 6 repetitions were calculated to get the percent immobilization of each sample.

The test system of the next test is M. hapla. Briefly: In vitro 96-well plate bioassay of purified peaks of fraction 3. The test is classed as in vivo, Meloidogyne hapla. The following applies: 24 hour at 25° C. As to the method: (§1) Once the purification of fraction 3 is complete and all of the desired peaks/compounds are collected as described above, each peak is tested in an in vitro 96-well plastic cell-culture plate extract bioassay in order to identify the peak/s that contain the desired active metabolite/s.
(§2) 15-20 nematodes in a […] water solution are exposed to […] of a 20 mg/ml peak concentrate (1.13 mg/ml total exposure) for a 24 hour period at 25° C. Once the incubation period is completed, results are recorded based on a visual grading of immotility of the J2s in each well treated with H492 purified peaks of H1 to H39, plus H29-A derived from fraction 3, each treatment is tested in four replicates. Three controls are included in each trial; one positive control (1% avid). and two negative controls (DMSO and water). Trial 1 (T1) was carried out using the method described above with M. hapla, trial 2 and 3 (T2 and T3) were carried out using the latter method with M. incognita (FIG. 22).

Test [1] relates to M. incognita. Described as above. Format: in vivo, Meloidogyne incognita. The following applies: 24 hour at 25° C. As to the method: as §1, §2
Test [2] deals with nematode juveniles (J2) of M. incognita (Monsanto strain). Briefly: Dose response % immotility for synthesized polyketide, 6-well plate immobility bioassay. Format: in vivo, Meloidogyne incognita. The following applies: tested 0.14-1.69 mg/mL in DMSO; 24 h exposure, 24 h on water agar; FIG. 23. The method, then:
The synthetic polyketide (MW 176) was tested at several doses (concentrations tested were 0.14, 0.28, 0.42, 0.56, 0.84, 1.13, 1.69 mg/mL of polyketide in DMSO) in the 6-well plate immobility bioassay to find the optimal dose of this compound needed in order to detect nematicidal activity. In this particular assay the nematode juveniles (J2) of M. incognita (Monsanto strain) were first exposed to the tested samples in 96-well plate: 50 μl of water containing approximately 300 J2 were mixed with 3 μl of polyketide sample or controls (avid (2%) as positive control or DMSO and water as negative controls, respectively. After 24 h incubation, 20 μl of J2 suspension from each well was transferred into the wells of 6-well plates filled with water agar (3 mL of 1% agar per each well). The plates were left open for 10-15 min to allow the solutions to dry out. Afterwards, circles were drawn around the J2 suspension and initial numbers of J2 inside the circles were counted under the stereomicroscope. The plates were incubated for another 24 h and the numbers of J2 that remained immotile (i.e. were still present inside the circles) were counted using stereomicroscope. The % of nematode immotility was expressed as: [(number of immotile nematodes after 24 h incubation/initial number of J2)*100%].

The test system of test [3] is M. incognita. The experiment in a line: Greenhouse cone test of polyketide 1, tomato (cv. UC82) as host. The test is classed as in vivo, Meloidogyne incognita. The following applies: compared to water control. The method, then:
The nematicidal activity of polyketide 1 (MW 176 compound) against root-knot nematodes was further assessed in greenhouse in cone tests using M. incognita and tomato (cv. UC82) as a host. The tomato seeds were germinated in vermiculate and 3-week-old seedlings were transferred to the cones containing mixture of sand and top soil (1:1). Two weeks after transplanting, tomato plants were treated with the samples. […] Four different concentrations (100, 10, 1, & 0.1 μg/mL) of the polyketide prepared in 4% methanol (MeOH) were dosed as 10 mL of soil drench into each pot. Each treatment was tested in 5 replicates. Following the drench each pot was inoculated with 1000 nematode eggs suspended in 1 mL of water. The dosing of the product was repeated after two weeks. Three weeks later, the inoculation test was terminated and the following parameters were scored: number of galls/root, gall index and fresh top weight.

For test [4], the system named is Avidovorax avenae subsp. citrulli. The experiment in a line: Antimicrobial agar disc assay. The test is classed as cell-based. As to the method: (§3) The pure 1-(4-hydroxyphenyl) pent-1-en-3-one (1) “polyketide MW 176” was tested against various microbial pathogens using agar disc assay.
The subject of another test is Bacillus cereus. Briefly: Antimicrobial agar disc assay. The test is classed as cell-based. The method, then:
as §3

The next test has as its system Erwinia amylovora. The experiment in a line: Antimicrobial agar disc assay. The test is classed as cell-based. The method, then:
as §3

A further test deals with Xanthomonas campestris. The experiment in a line: Antimicrobial agar disc assay. The test is classed as cell-based. As to the method: as §3

Molecules are shown by their SMILES.

Here are results for 43 compounds from patent US11013236B2, “Pesticidal Flavobacterium strain and bioactive compositions metabolites and uses” (Marrone Bio Innovations, Inc., priority 2012, dated 2021).

The compound `CC(C)C=O` [SAR-40, iso-butyraldehyde] gave an Average % immobility in the test on nematodes (J2's) of 79%.

In the test on nematodes (J2's), `CC(C)CC(=O)/C=C/c1ccc(O)cc1` [SAR-10, (E)-1-(4-hydroxyphenyl)-5-methylhex-1-en-3-one] displayed an Average % immobility of 96%.

Turning to `CC(=O)CC(C)(C)O` [SAR-41, 4-hydroxy-4-methylpentanone], the Average % immobility in the test with nematodes (J2's) was determined as 21%.

For `O=C(/C=C/C=C/c1ccccc1)c1ccccc1` [SAR-5, (2E,4E)-1,5-diphenylpenta-2,4-dien-1-one], the Average % immobility in the test on nematodes (J2's) is recorded as 98%.

In the case of `CCCCCC(C)=O` [SAR-36, 2-heptanone], in the test on nematodes (J2's), the Average % immobility is 21%.

On to `O=Cc1cccc(O)c1` [SAR-29, 3-hydroxybenzaldehyde], for which the Average % immobility in the test on nematodes (J2's) is on record as 70%.

Consider `CCC(C)=O` [SAR-43, 2-butanone], for which the Average % immobility in the test on nematodes (J2's) worked out at 21%.

In the case of `C/C(=C\c1cccc(O)c1)C(=O)/C=C/c1cccc(O)c1` [SAR-21, (1E,4E)-1,5-bis(3-hydroxyphenyl)-2-methylpenta-1,4-dien-3-one], in the test with nematodes (J2's), the Average % immobility amounted to 12%.

Regarding `CC(=O)/C=C/c1cccc(O)c1` [SAR-11, (E)-4-(3-hydroxyphenyl)but-3-en-2-one], the Average % immobility in the test with nematodes (J2's) is reported as 99%.

In the test on nematodes (J2's), `CC(=O)/C=C/c1ccc(O)cc1` [SAR-28, (E)-4-(4-hydroxyphenyl)but-3-en-2-one] had an Average % immobility of 78%.

For the compound `O=C(/C=C/c1ccccc1O)c1ccccc1` [SAR-7, (E)-3-(2-hydroxyphenyl)-1-phenylprop-2-en-1-one], the Average % immobility with nematodes (J2's) is given as 99%.

Consider `CC(=O)/C=C/c1ccccc1O` [SAR-12, (E)-4-(2-hydroxyphenyl)but-3-en-2-one], for which the Average % immobility in the test on nematodes (J2's) is 99%.

For `CC/C=C\CC/C=C/C(C)=O` [SAR-16, (3E,7Z)-deca-3,7-dien-2-one], the Average % immobility with nematodes (J2's) is 94%.

With `CCCCCCCCCC(C)=O` [SAR-37, 2-undecanone], the Average % immobility in the test with nematodes (J2's) came to 67%.

In turn, `O=C(/C=C/c1ccc(O)cc1)c1ccccc1` [SAR-9, (E)-3-(4-hydroxyphenyl)-1-phenylprop-2-en-1-one] yielded an Average % immobility in the test with nematodes (J2's) of 100%.

`O=Cc1ccccc1OCC(=O)c1ccccc1` [SAR-13, 2-(2′-phenyl-2-oxoethoxy) benzaldehyde] yielded an Average % immobility with nematodes (J2's) of 74%.

`CC(C)CC(=O)/C=C/c1ccccc1` [SAR-25, (E)-5-methyl-1-phenylhex-1-en-3-one] showed an Average % immobility in the test on nematodes (J2's) of 79%.

As for `COc1ccccc1C=O` [SAR-42, o-anisaldehyde], the Average % immobility in the test with nematodes (J2's) was 8%.

In the case of `CC(=O)/C=C/c1ccccc1O` [SAR-3, (E)-4-(2-hydroxyphenyl)but-3-en-2-one], the Average % immobility in the test on nematodes (J2's) is listed as 95%.

In the test with nematodes (J2's), `O=Cc1ccccc1` [SAR-32, Benzaldehyde] yielded an Average % immobility of 65%.

As for `O=C(/C=C/Cc1ccccc1)c1ccccc1` [SAR-19, (E)-1,4-diphenylbut-2-en-1-one], the Average % immobility in the test with nematodes (J2's) is recorded as 64%.

In turn, `CCCCCCCCC1CCC(=O)O1` (stereo not shown) [SAR-33, γ-dodecalactone] returned an Average % immobility in the test with nematodes (J2's) of 63%.

`CC/C=C\CCC=O` [SAR-38, cis-4-heptenal] came in with an Average % immobility in the test with nematodes (J2's) of 21%.

The compound `CC(=O)/C=C/C=C/c1ccccc1` [SAR-4, (3E,5E)-6-phenylhexa-3,5-dien-2-one] registered an Average % immobility in the test with nematodes (J2's) of 97%.

On to `CC(C)CC(=O)/C=C/c1cccc(O)c1` [SAR-27, (E)-1-(3-hydroxyphenyl)-5-methylhex-1-en-3-one], for which the Average % immobility with nematodes (J2's) is listed as 78%.

In the case of `O=Cc1ccc(O)cc1` [SAR-30, 4-hydroxybenzaldehyde], in the test on nematodes (J2's), the Average % immobility is recorded as 58%.

Consider `CCC(=O)/C=C/c1ccc(O)cc1` [Compound 1, 1-(4-hydroxyphenyl) pent-1-en-3-one], for which the “Potency in in vitro assay (immotility of J2s)” value with M. hapla and with M. incognita [1] was “confirmed” each time. Besides, the “optimal range required for good nematicidal activity (% immotility)” value in test [2] is at least 0.5 mg/mL. In addition, the gall index entry was “significantly reduced” in the test on M. incognita [3] (0.1 mg/ml, 10 mL soil drench, 1st test) and “significantly reduced” in the test with M. incognita [3] (all tested dilutions, 2nd test). In addition, the “gall index and galls per root” value with M. incognita [3] (0.001 & 0.01 mg/ml, 10 mL soil drench, 1st test) is listed as “significantly reduced”. The antimicrobial activity result is on record as “moderate activity” in [4], “moderate activity” in the test on Bacillus cereus, “potent activity” in the test with Erwinia amylovora and “moderate activity” in the test with Xanthomonas campestris.

In the case of `CCCCC1CCC(=O)O1` (stereo not shown) [SAR-34, γ-octalactone], the Average % immobility in the test on nematodes (J2's) worked out at 21%.

On to `CC(=O)CC(C)C` [SAR-39, 4-methyl-2-pentanone], for which the Average % immobility in the test on nematodes (J2's) is 54%.

On to `O=C(/C=C/c1cccc(O)c1)c1ccccc1` [SAR-22, (E)-3-(3-hydroxyphenyl)-1-phenylprop-2-en-1-one], for which, in the test on nematodes (J2's), the Average % immobility was 70%.

Compound `O=C(/C=C/Cc1ccccc1)c1ccc(O)cc1` [SAR-20, (E)-1-(4-hydroxyphenyl)-4-phenylbut-2-en-1-one] gave an Average % immobility with nematodes (J2's) of 28%.

The compound `O=Cc1ccccc1O` [SAR-31, 2-hydroxybenzaldehyde] returned an Average % immobility in the test on nematodes (J2's) of 58%.

Regarding `CC(=O)/C(C)=C/c1ccccc1O` [SAR-14, (E)-4-(2-hydroxyphenyl)-3-methylbut-3-en-2-one], the Average % immobility with nematodes (J2's) is listed as 97%.

As for `CC(C)CC(=O)/C=C/c1ccccc1O` [SAR-8, (E)-1-(2-hydroxyphenyl)-5-methylhex-1-en-3-one], the Average % immobility with nematodes (J2's) is listed as 100%.

`CCC(=O)/C=C/c1ccccc1O` [SAR-6, (E)-1-(2-hydroxyphenyl)pent-1-en-3-one] yielded an Average % immobility with nematodes (J2's) of 98%.

As to `O=C(CBr)c1ccccc1` [SAR-26, 2-bromo-1-phenylethanone], in the test on nematodes (J2's), the Average % immobility worked out at 50%.

`CCC(=O)/C=C/c1ccccc1` [SAR-23, (E)-1-phenylpent-1-en-3-one] yielded an Average % immobility in the test with nematodes (J2's) of 80%.

`CCCCCCC(C)=O` [SAR-35, 2-octanone] showed an Average % immobility with nematodes (J2's) of 33%.

With `CC/C=C/C(=O)c1ccccc1` [SAR-15, (E)-1-phenylpent-2-en-1-one], the Average % immobility with nematodes (J2's) is recorded as 20%.

For `CC(=O)/C(C)=C/c1ccc(O)cc1` [SAR-24, (E)-4-(4-hydroxyphenyl)-3-methylbut-3-en-2-one], the Average % immobility with nematodes (J2's) is 80%.

In the test on nematodes (J2's), `CC(=O)/C=C/c1ccccc1` [SAR-1, (E)-4-phenylbut-3-en-2-one] gave an Average % immobility of 99%.

As for `O=C(/C=C/c1cccc(O)c1)/C=C/c1cccc(O)c1` [SAR-18, (1E,4E)-1,5-bis(3-hydroxyphenyl) penta-1,4-dien-3-one], in the test on nematodes (J2's), the Average % immobility stood at 23%.

In turn, `O=C(/C=C/c1ccccc1)c1ccccc1` [SAR-2, Benzalacetophenone] gave an Average % immobility with nematodes (J2's) of 4%.
